From ChEMBL document CHEMBL4325868, “Design, synthesis and antitubercular activity of 4-alkoxy-triazoloquinolones able to inhibit the M. tuberculosis DNA gyrase” (Eur J Med Chem, 2019)
In brackets after ≈: the same amount, converted by molar mass.

Columns and labels:
Type in all cases: functional
[1] = system: Mycobacterium tuberculosis; assay: Antitubercular activity against multidrug resistant Mycobacterium tuberculosis isolate 571 after 7 days by resazurin microtiter assay; conditions: isolate 571, 168 h
[2] = system: Mycobacterium tuberculosis; assay: Antitubercular activity against multidrug resistant Mycobacterium tuberculosis isolate 1120 after 7 days by resazurin microtiter assay; conditions: isolate 1120, 168 h
[3] = system: Mycobacterium tuberculosis; assay: Antitubercular activity against rifampicin/ethambutol resistant Mycobacterium tuberculosis isolate 1726 after 7 days by resazurin microtiter assay; conditions: isolate 1726, 168 h
[4] = system: Mycobacterium tuberculosis; assay: Antitubercular activity against streptomycin resistant Mycobacterium tuberculosis isolate 203 after 7 days by resazurin microtiter assay; conditions: isolate 203, 168 h
[5] = system: Mycobacterium tuberculosis; assay: Antitubercular activity against streptomycin resistant Mycobacterium tuberculosis isolate 204 after 7 days by resazurin microtiter assay; conditions: isolate 204, 168 h
[6] = system: Mycobacterium tuberculosis; assay: Antitubercular activity against isoniazid/ethambutol resistant Mycobacterium tuberculosis isolate 368 after 7 days by resazurin microtiter assay; conditions: isolate 368, 168 h
[7] = system: Mycobacterium tuberculosis; assay: Antitubercular activity against streptomycin resistant Mycobacterium tuberculosis isolate 157 after 7 days by resazurin microtiter assay; conditions: isolate 157, 168 h
[8] = system: Mycobacterium tuberculosis; assay: Antitubercular activity against ciprofloxacin resistant Mycobacterium tuberculosis isolate 600 after 7 days by resazurin microtiter assay; conditions: isolate 600, 168 h
[9] = system: Mycobacterium tuberculosis; assay: Antitubercular activity against multidrug resistant Mycobacterium tuberculosis isolate 512 after 7 days by resazurin microtiter assay; conditions: isolate 512, 168 h
[10] = system: Mycobacterium tuberculosis; assay: Antitubercular activity against ciprofloxacin resistant Mycobacterium tuberculosis isolate 1670 after 7 days by resazurin microtiter assay; conditions: isolate 1670, 168 h
[11] = system: Mycobacterium tuberculosis; assay: Antitubercular activity against multidrug resistant Mycobacterium tuberculosis isolate 7 after 7 days by resazurin microtiter assay; conditions: isolate 7, 168 h
[12] = system: Mycobacterium tuberculosis; assay: Antitubercular activity against rifampicin resistant Mycobacterium tuberculosis isolate 952 after 7 days by resazurin microtiter assay; conditions: isolate 952, 168 h
[13] = system: Mycobacterium tuberculosis; assay: Antitubercular activity against isoniazid resistant Mycobacterium tuberculosis isolate 1358 after 7 days by resazurin microtiter assay; conditions: isolate 1358, 168 h
[14] = system: Mycobacterium tuberculosis; assay: Antitubercular activity against streptomycin/isoniazid/ethambutol resistant Mycobacterium tuberculosis isolate 1097 after 7 days by resazurin microtiter assay; conditions: isolate 1097, 168 h

SMILES: COc1cc2c(=O)c(C(=O)O)cn(C)c2c2nnn(C)c12
- MIC [1]: 16 µM (≈ 4.61 µg/mL)
- MIC [2]: 4 µM (≈ 1.15 µg/mL)
- MIC [3]: 16 µM (≈ 4.61 µg/mL)
- MIC [4]: 16 µM (≈ 4.61 µg/mL)
- MIC [5]: 8 µM (≈ 2.31 µg/mL)
- MIC [6]: 8 µM (≈ 2.31 µg/mL)
- MIC [7]: 8 µM (≈ 2.31 µg/mL)
- MIC [8]: 16 µM (≈ 4.61 µg/mL)
- MIC [9]: 8 µM (≈ 2.31 µg/mL)
- MIC [10]: 16 µM (≈ 4.61 µg/mL)
- MIC [11]: 4 µM (≈ 1.15 µg/mL)
- MIC [12]: 32 µM (≈ 9.22 µg/mL)
- MIC [13]: 16 µM (≈ 4.61 µg/mL)
- MIC [14]: 32 µM (≈ 9.22 µg/mL)

SMILES: O=C(O)c1cn(C2CC2)c2cc(N3CCNCC3)c(F)cc2c1=O [CIPROFLOXACIN]
- MIC [8]: 4 µM (≈ 1.33 µg/mL)
- MIC [9]: 8 µM (≈ 2.65 µg/mL)
- MIC [10]: 16 µM (≈ 5.3 µg/mL)
